The record followed here is ChEMBL document CHEMBL3638794, “Indazole compounds useful as ketohexokinase inhibitors” (2014).

SMILES strings stand for the structures.

The target of the experiment is T1, Ketohexokinase (Homo sapiens, UniProt P50053).
T1 sequence (P50053 whole entry): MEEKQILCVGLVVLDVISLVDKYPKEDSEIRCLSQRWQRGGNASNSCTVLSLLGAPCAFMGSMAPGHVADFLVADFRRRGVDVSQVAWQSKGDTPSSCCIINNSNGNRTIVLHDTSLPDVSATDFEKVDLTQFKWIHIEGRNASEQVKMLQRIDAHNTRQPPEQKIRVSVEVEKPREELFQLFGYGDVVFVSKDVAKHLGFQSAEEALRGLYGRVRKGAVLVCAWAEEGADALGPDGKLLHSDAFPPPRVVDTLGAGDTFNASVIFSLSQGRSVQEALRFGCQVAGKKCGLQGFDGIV
Put plainly: Enzyme Assay: An enzymatic assay was developed to measure KHK-mediated conversion of D-fructose to Fructose-1-P (F-1-P) using High Throughput Mass Spectroscopy (HTMS) as a means of product detection. […] The assay was carried out in 384-well plate format.

`CSc1nn(-c2ccc(Br)cc2)c2cc(OC3CCNCC3)ccc12` displayed an IC50 of 2050 nM.
